Measured values from article PMC9814687, “Controlling oncogenic KRAS signaling pathways with a Palladium-responsive peptide” (Communications Chemistry, 2022).

Columns and labels:
A549 cells = assay: Cell internalization by fluorescence microscopy; format: cell-based; conditions: for cellular internalization (intracellular TMR fluorescence), in words: A549 cells, 10 µM, 30 min at 37 °C, DMEM with 5% FBS, washed with PBS, fluorescence microscopy
Method: (§1) All steps were performed on a sterile clean bench Telstar AV-100 at rt. Solutions stored in a fridge were warmed beforehand in a water bath (37 °C). Unless otherwise specified, all incubations were performed in DMEM containing 5% of fetal bovine serum (FBS-DMEM). Cell Culture: A549 cell line was cultured in DMEM (Dulbecco´s modified Eagle´s medium), 5 mM glutamine, penicillin (100 units/mL) and streptomycin (100 units/mL), all from Invitrogen. Proliferating cultures were maintained in a 5% CO2 humidified incubator at 37 °C. For all the experiments, cells were seeded in the corresponding well at the indicated concentration 2 days before treatment. A549 cells were seeded on glass-bottom plates 48 h (150.000 cell/ml) before treatment. […] (10 µM) were added. The metallopeptide was made just before the addition to cells by pre-incubating with metal complexes (1:1) in water for 10 min. After 30 min of incubation with cells, these were washed twice with PBS and replaced with fresh FBS-DMEM to observe under the microscope with adequate filters. Digital pictures of the different samples were taken under identical conditions of gain and exposure. A549 cells were seeded on glass-bottom plates (150.000 cell/ml) 48 h before treatment. […] After two washes with PBS, the cells were lysed in Laemmli buffer containing Tris pH 6,8 1 M, Glycerol, SDS, Bromophenol Blue, and β-mercaptoethanol, and heated at 95 °C for 10 min. The samples were separated by SDS-12.5% polyacrylamide gel and transferred to nitrocellulose membrane, to probed by Western blotting. […] The visualization was performed with ChemiDoc MP imaging system by Biorad, and the processing of the images and densitometry quantification was carried out with ImageLab program.
All images were obtained with an Andor Zyla mounted on a Nikon TiE. LED excitation wavelength 550 nm. Filter cube TRITC-B-000 (Semrock): BP 543/22 nm, […] 593/40 nm, and DM 562 nm. Images were further processed with Image J.

[1] = Circular dichroism (α-helical content); format: physicochemical; conditions: 10% TFE, 25 °C
Method: Circular Dichroism was measured on a Jasco-715 coupled with a thermostat Nestlab RTE-111 using a 2 mm Hellma cuvette at 25 °C and the following settings: Acquisition range, 300-195 nm; band width, 2.0 nm; resolution, 0.2 nm; accumulation, 5 scans; sensitivity, 10 mdeg; response time, 0.25 s; speed, 100 nm/min. The spectra are the average of 5 scans and were processed using the “smooth” macro in the program KaleidaGraph (v 3.5 by Synergy Software).
Circular Dichroism. Circular Dichroism was measured on a Jasco-715 coupled with a thermostat Nestlab RTE-111 using a 2 mm Hellma cuvette at 25 °C and the following settings: Acquisition range, 300 -195 nm; band width, 2.0 nm; resolution, 0.2 nm; accumulation, 5 scans; sensitivity, 10 mdeg; response time, 0.25 s; speed, 100 nm/min. The spectra are the average of 5 scans and were processed using the “smooth” macro in the program KaleidaGraph (v 3.5 by Synergy Software).
Fig S3. Left: CD titration experiment.
5 and 10 equivalents of cis-PdCl2(en). The experiments were carried out in 10 mM phosphate buffer pH 7.5, 100 mM of NaCl and 10% TFE, 25 °C. Mean residue molar ellipticity ([ Θ]MRE) was calculated considering the peptide as an 18-mer.
(1 picture or pasted object on this page, not shown here)

[2] = tested on: phospho-ERK1/2 in serum-starved A549 cells; assay: Inhibition of ERK1/2 phosphorylation (Western blot, densitometry); format: cell-based; conditions: 4 h, Western blot with pERK antibodies
Method: as §1

HeLa cells = assay: MTT toxicity assay; conditions: long incubation (24 h), up to 100 µM
Method: cells as follows: 100,000 cells per well were seeded in 96 well plates two days before treatment with different
concentrations of the peptides/metal. After 24 h of incubation, HEPES containing 3-(4,5-dimethylthiazol-2-
yl)-2,5-diphenyl tetrazolium bromide (MTT) was added to the cell culture medium to a final concentration of
0.5 mg/ml. Cells were then incubated for 4 h to allow the formation of formazan precipitates by metabolically
active cells. A detergent solution of 10% SDS (sodium dodecyl sulphate) and 0.01 M HCl was then added,
and the plate was incubated overnight at room temperature to allow the solubilization of the precipitates.
The quantity of formazan in each well (directly proportional to the number of viable cells) was measured by
recording changes in absorbance at 570 nm in a microtiter plate reading spectrophotometer (Tecan Infinite
Toxicity assay. HeLa cells were incubated with peptide, metallopeptide and palladium at
different concentrations, for 24 h at 37 °C. Then, the cells were washed two time with PBS before carry ing
out the MTT assay. Data are mean +/- SEM for experimental repeated in two independent times.

Compound | cellular internalization (intracellular TMR fluorescence), in words (A549 cells) | cell localization by fluorescence microscopy (A549 cells; cells incubated with the metallopeptide, authors' reply to reviewers) | α-helical content ([1]; from CD band at 222 nm, 20 µM peptide + 1 eq. cis-PdCl2(en), 10 mM phosphate pH 7.5, 100 mM NaCl) | levels of ERK phosphorylation, in words [2] | cell viability in MTT assay, in words (HeLa cells) | mean residue molar ellipticity at 222 nm ([1]; CD, 20 µM peptide, 10 mM phosphate buffer pH 7.5, 100 mM NaCl, calculated for an 18-mer, metallopeptide 30 min after 1 eq. cis-PdCl2(en))
CC[C@H](C)[C@H](NC(=O)CNC(=O)[C@H](Cc1ccccc1)NC(=O)[C@H](Cc1ccccc1)NC(=O)[C@H](CCCNC(=N)N)NC(=O)[C@H](CCCNC(=N)N)NC(=O)CCCCCNC(=O)c1ccc2c(c1)C(=O)OC21c2ccc(N(C)C)cc2Oc2cc(N(C)C)ccc21)C(=O)N[C@@H](Cc1c[nH]cn1)C(=O)N[C@@H](CC(C)C)C(=O)N[C@H](C(=O)N[C@@H](CC(N)=O)C(=O)N[C@@H](Cc1c[nH]cn1)C(=O)N[C@@H](CC(C)C)C(=O)N[C@@H](CCCCN)C(=O)N[C@H](C(=O)N[C@@H](CCC(=O)O)C(=O)N[C@@H](CCC(=O)O)C(=O)NCC(=O)N[C@@H](CC(N)=O)C(N)=O)[C@@H](C)O)[C@@H](C)O [αH-His2[Pd]] | intense intracellular fluorescence signal | endosomal localization | about 22% | significant decrease | – | –
NCCN.[Cl][Pd][Cl] [cis-PdCl2(en), reference compound] | – | – | – | failed to induce changes | remains high | –
TMR-Ahx-RRFFGIHLTNHLKTEEGN [αH-His2] | rather poor internalization | – | – | failed to induce changes | – | ≈ −2200 deg cm^2 dmol^−1
